# Data taken from patent publication US20020165283A1, “Preservative blends containing quaternary ammonium compounds” (LONZA INC., priority 2001, published 2002).
# System: S. aureus, P. aeruginosa, and E. coli
# Experiment: Mixed bacterial challenge of preserved anionic protein shampoo samples (plate counts)
# Type: cell-based
# Procedure: Each anionic shampoo sample in Table 1 below was tested as follows. A standardized mixed bacterial solution was prepared according to the following procedure. 3 agar stabs of S. aureus (ATCC#6538), P. aeruginosa (ATCC#9027), and E. coli (ATCC #8739) were separately incubated at about 35° C. for about 24 hours. Each stab was then washed with 3 mL of sterile 0.85% saline solution. The washes of the 3 stabs were pooled together to form an organism mixture. The absorbance of the organism mixture at 530 nm was adjusted to about 1.00 by adding saline. The spectrometer was calibrated with a saline blank. A 5 mL aliquot of the organism mixture was mixed together to produce the standardized mixed bacterial solution. Then, 40 g of each shampoo sample was inoculated with 0.2 mL of the standardized mixed bacterial solution and mixed. 1 g of the mixture was added to a sterile 20×150 mm screw cap test tube. 9 mL of sterile D/E neutralizer broth was added to the test tube and mixed to form a 10^−1 dilution,. Serial dilutions were prepared through to a 10^−6 dilution with phosphate buffered water. The serial dilutions were plated onto Tryptic Soy Agar and incubated for 2 days at about 35° C. Bacteria counts were performed after 0 and 14 days.
# The anionic protein shampoo composition was comprised of 35% by weight of sodium lauryl ether sulfate; 25% by weight of triethanolamine lauryl sulfate; 3% by weight coconut diethanolamide (cocamide DEA); 1% by weight of hydrolyzed collagen, available as Polypro 5000™ from Hormel Foods of Austin, Minn.; and 36% by weight of deionized water.
# The sodium dehydroacetate monohydrate, sodium salicylate, and Hyamine® 1622 shampoo samples were prepared by mixing the appropriate amounts of the preservatives and the aforementioned anionic protein shampoo composition and heating the mixture to about 50° C. for about 15 minutes.
# (§1) The procedure described in Example 1 was repeated with the anionic shampoos in Table 3 below. The bacterial counts were performed after 0 and 7 days. The dehydroacetic acid (available from Lonza Inc. of Fair Lawn, N.J.) and Hyamine® 1622 shampoo samples were prepared by mixing the appropriate amounts of the preservatives and the anionic protein shampoo composition and heating the mixture to about 50° C. for about 15 minutes.
# as §1, with “5” for “3”, “salicylic” for “bacterial counts were performed after 0 and 7 days. The dehydroacetic”, “Spectrum Chemical” for “Lonza Inc.”, “New Brunswick,” for “Fair Lawn,”, “for” for “for about”
# [1] = Table 1, 0.5% by weight of preservative alone
# [2] = Table 5, 0.2% of preservative alone
# [3] = Table 1, 1.0% by weight of preservative alone
structure (smiles),measurement,setting,value
"CC(=O)C1C(=O)C=C(C)OC1=O (centres unmarked) [Dehydroacetic Acid, dehydroacetic acid]","S. aureus, P. aeruginosa, and E. coli (cfu/g) Day 0","Table 3, 0.2% of preservative alone",2.5 × 10^6 cfu/g
same,"S. aureus, P. aeruginosa, and E. Coli (cfu/g) Day 7","Table 3, 0.2% of preservative alone, Day 7",4.4 × 10^4 cfu/g
"CC(=O)c1c([O-])cc(C)oc1=O.O.[Na+] [Sodium Dehydroacetate Monohydrate, Sodium dehydroacetate monohydrate]","S. aureus, P. aeruginosa, and E. coli (cfu/g) Day 0",[1],3.0 × 10^6 cfu/g
same,"S. aureus, P. aeruginosa, and E. coli (cfu/g) Day 14",[1],4.0 × 10^3 cfu/g
"O=C(O)c1ccccc1O [Salicylic Acid, salicylic acid]","S. aureus, P. aeruginosa, and E. coli (cfu/g) Day 0",[2],3.1 × 10^6 cfu/g
same,"S. aureus, P. aeruginosa, and E. coli (cfu/g) Day 14",[2],6.5 × 10^6 cfu/g
"O=C([O-])c1ccccc1O.[Na+] [Sodium Salicylate, Sodium salicylate]","S. aureus, P. aeruginosa, and E. coli (cfu/g) Day 0",[3],3.0 × 10^6 cfu/g
same,"S. aureus, P. aeruginosa, and E. coli (cfu/g) Day 14",[3],5.0 × 10^2 cfu/g
